Our source for the EC50 values is BindingDB's records for doi:10.1016/j.bmcl.2012.09.045 (East China University of Science and Technology, 2012).

The target in the assay is T1, Bile acid receptor (Homo sapiens, UniProt Q96RI1).
T1 sequence (Q96RI1 whole entry): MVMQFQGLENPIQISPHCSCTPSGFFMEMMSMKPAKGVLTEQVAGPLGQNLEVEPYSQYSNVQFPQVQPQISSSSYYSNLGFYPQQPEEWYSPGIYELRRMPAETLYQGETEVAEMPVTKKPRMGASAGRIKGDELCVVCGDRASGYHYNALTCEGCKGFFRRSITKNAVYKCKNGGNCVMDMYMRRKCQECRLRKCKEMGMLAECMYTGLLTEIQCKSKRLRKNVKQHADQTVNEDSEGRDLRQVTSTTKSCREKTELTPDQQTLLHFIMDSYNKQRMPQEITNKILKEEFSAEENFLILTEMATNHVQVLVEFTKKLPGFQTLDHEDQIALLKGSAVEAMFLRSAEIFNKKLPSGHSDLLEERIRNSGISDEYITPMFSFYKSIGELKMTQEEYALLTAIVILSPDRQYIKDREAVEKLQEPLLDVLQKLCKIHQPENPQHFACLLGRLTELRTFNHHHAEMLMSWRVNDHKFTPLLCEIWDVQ
Nature of the assay: Agonist activity at FXR.

Consider `COC(=O)/C=C/c1cccc(N(Cc2ccc(-c3ccc(C(C)(C)C)cc3)cc2)C(=O)C(C)C)c1`, for which the midpoint of the response, the EC50, lay at 343 nM. This lies in the sub-micromolar range.
